Several values for one entry are separate records, joined by “and”; a condition that tells them apart may be missing. Equal entries are not always repeated. Each block holds one substance with its values, some of them ahead of it.
What was measured:
[1] = system: NC and PC cell populations; test: Cell survival after exposure to lysomotropic agent MSDH; type: cell-based; settings: for cell survival after MSDH: 45 μM MSDH for 42 hours; for cell death after MSDH: 55 μM MSDH for 42 hours
Method: To further elucidate the mechanism by which cyclodextrin can decrease the concentration of lipofuscin in cells, an assay in which the lysomotropic agent MSDH was administered to cells in order to measure the effect of cyclodextrin administration on cellular health post-MSDH treatment was performed (FIG. 13A-D and FIG. 14A-D). FIG. 13A-D provides representative photomicrographs of NC, PC, NC w/CD, and PC w/CD cell populations after 42 hours of exposure to 45 μM of MSDH. […] FIG. 14A-D provides representative photomicrographs of NC (FIG. 14A), PC (FIG. 14B), NC w/CD (FIG. 14C), and PC w/CD (FIG. 14D) cell populations, respectively, after the populations were exposed to an increased level of MSDH for an increased […] (55 μM for 42 hours). […] The results of FIG. 14A-D were indicative of different degrees of lysosomal membrane cholesterol composition change pending cyclodextrin treatment and lipofuscin levels, with the aged lipofuscin loaded cells treated with cyclodextrin being the most resistant to MSDH treatment (FIG. 14D).

fibroblasts [2] = test: Fluorescence imaging of native lipofuscin in fibroblasts; type: cell-based; settings: for native lipofuscin autofluorescence versus untreated cells: fibroblasts maintained 16 days, cyclodextrin during days 1-8 (FIG. 7A-B)
Method: Healthy fibroblasts were passaged (˜P25) and grown to confluency in media. The cells in FIG. 7A (“untreated”) were maintained for 16 days; likewise, the cells in FIG. 7B (“treated”) were maintained for 16 days, however, cyclodextrin was added to the treated cells during days 1-8. Following the 16 day period of cell maintenance, lipofuscin levels were observed using fluorescence imaging as lipofuscin appears as a bright red autofluorescent material during fluorescence-based imaging. […] In order to ascertain whether or not the untreated or treated fibroblasts appeared healthy after the 16 day period of maintenance, both the untreated and treated fibroblasts were imaged with 60× magnification using light microscopy.

fibroblasts [3] = test: Confocal microscopy of lipofuscin in fibroblasts; type: cell-based; settings: after 8 days (FIG. 5)
Description: FIG. 5 provides representative confocal photomicrographs wherein the accumulation of lipofuscin in fibroblasts that were either treated with HPβCD or were not treated with HPβCD was fluorescently imaged over the course of 8 days.

THP-1 cells = test: Acridine orange uptake assay for lysosomal membrane permeabilization; type: cell-based
Method: To prepare FIG. 3A-B, THP-1 cells were exposed to different LDL treatments over 7 days and then assessed for lysosomal membrane permeabilization using an acridine orange uptake assay. In FIG. 3A: Acridine orange was excited at 488 nm and emissions recorded at 633 and 520 nm. Higher signal intensities at 520 nm and lower intensities at 633 nm were indicative of lysosomal instability. 7KC-LDL induced lysosomal membrane permeabilization that was attenuated by HβCD that was added to samples on day 6. In FIG. 3B: Flow cytometry signal are presented as intensities as a percent of control (normal LDL-treated). […] Although both the 633 nm and 520 nm signal intensities decreased after HβCD amendment for oxLDL and 7KC-LDL, the decrease in the 520 nm signal was of greater magnitude, thereby indicating increased lysosomal stability.

[4] = system: cholesterol present in a cell population; test: Filipin staining of cellular cholesterol; type: cell-based; settings: for cholesterol content of cells by filipin stain: after 4 days of maintenance, 100× (FIG. 11A-D)
Method: To further address the mechanism by which cyclodextrin treatment can decrease the concentration of lipofuscin in cells, filipin staining experiments were performed (FIG. 10A-D, FIG. 11A-D, and FIG. 12A-D). Filipin stain can be used to visualize the cholesterol present in a cell population. FIG. 10A and FIG. 10C provide representative photomicrographs of two different cell populations before confluency. Four days after the time the micrographs in FIG. 10A and FIG. 10C were produced, a filipin stain was applied to both cell populations (FIG. 10B and FIG. 10D), however, in the case of FIG. 10D, the cell population was treated with cyclodextrin for 3.5 hours before the filipin staining procedure. […] In order to measure the effects of long term cyclodextrin treatment, untreated healthy cells (NC), healthy cells treated with cyclodextrin (NC w/CD), untreated cells loaded with lipofuscin (PC), and cells loaded with lipofuscin and treated with cyclodextrin (PC w/CD) were filipin stained and imaged at 100× magnification after 4 days of maintenance (FIG. 11A-D) and were filipin stained and imaged at 200× magnification after 9 days of cell maintenance (FIG. 12A-D).

human skin fibroblasts = test: CCK-8 cell viability assay; type: cell-based; settings: days 4, 7 and 10; NC+CD and T versus NC and PC
Method: In order to determine whether cells were still viable when treated with cyclodextrin, a CCK-8 assay was performed on cells (human skin fibroblasts, Coriell Cell Repositories, Catalog #GM00498) over the course of a 10 days period (FIG. 8). On each day 4, day 7, and day 10, the viability of the cells was ascertained through a CCK-8 assay whereby colorimetric change was indicative of change in the cell viability status. The cell populations tested on day 4, day 7, and day 10 were healthy negative control cells (NC), healthy cells treated with cyclodextrin (NC+CD), lipofuscin loaded cells (PC), and lipofuscin loaded cells treated with cyclodextrin (T). […] FIG. 8 also presents blanks that were used as controls (the blanks appear circled in red in FIG. 8).

[5] = system: human skin cells (human fibroblast cells); test: Flow cytometry of non-bisretinoid lipofuscin content per cell; type: cell-based; settings: for total non-bisretinoid lipofuscin content, Average / total non-bisretinoid lipofuscin content, individual samples 1-4: 2HPβCD for five days
Description: Table 3 and FIG. 4 presents data obtained from the treatment of human fibroblast cells with 10 rng/ml 2HPβCD for five days.
The values of Table 3 represent total non-bisretinoid lipofuscin content measured in fluorescent units per cell using a BD FACSCANTO™ II flow cytometer (BD Biosciences, San Jose, Calif.). Measurements were made with a 488 nm blue argon laser with a 530/30 nm FITC band pass filter. The total cell population size for each individual sample measurement was n>15,000 cells.

TFEB = test: RT-PCR analysis of major lysosome genes; type: cell-based; settings: NC w/CD and PC w/CD at day 10 compared to PC
Method: (§1) To address the mechanisms by which cyclodextrin treatment can remove lipofuscin from cells, a RT-PCR analysis of major lysosome genes was performed (FIG. 9). Healthy cells treated with cyclodextrin (“NC w/CD”), lipofuscin loaded cells (“PC”), and lipofuscin loaded cells treated with cyclodextrin (“PC w/CD”) were maintained for 10 days. Following the 10 day period, RT-PCR was performed on each cell population in order to ascertain the regulation status of the major lysosome genes ULK1, TFEB, and HMOX.

ULK1 = test: RT-PCR analysis of major lysosome genes; type: cell-based; settings: NC w/CD and PC w/CD at day 10 compared to PC
Method: as §1

[6] = system: lipofuscin loaded cells (PC cells) (human skin fibroblasts); test: Autofluorescence of lipofuscin loaded cells (removal of pre-existing lipofuscin); type: cell-based; settings: PC cells treated day 5 to day 10 and further 48 hours; untreated 13%; p 0.05
Method: FIG. 6 provides representative quantified data of the autofluorescence of lipofuscin loaded cells (PC cells) (human skin fibroblasts, Coriell Cell Repositories, Catalog #GM00498) either untreated or treated with CD in order to track the removal of lipofuscin already present within the PC cells. To perform the assay, PC cells were allowed to grow for 5 days, and the PC cells were treated such that lipofuscin was produced only from day 1 through […]. After 5 days, one population of cells (“treated population”, PC+cyclodextrin in FIG. 6) was treated with cyclodextrin from day 5 to day 10, whereas a second population of cells (“untreated population”, PC only in FIG. 6) remained untreated from day 5 to day 10. On day 10, lipofuscin levels were measured for both cell populations. Following this measurement, the untreated population was placed in media only for 48 hours whereas the treated population was placed in media containing cyclodextrin for 48 hours. 48 hours following this transfer of the cell populations to their respective media, the lipofuscin levels of both the untreated and treated populations were again measured. […] The p-value comparing the percentage differences between the treated and untreated populations was 0.05. […]

cultured cells = settings: cited from earlier work
[7] = Aged Human Skin Cells + 2-HPCD (Test)
[8] = Human Skin Cells + 2-HPCD (Negative Control + Drug)

appearance of treated fibroblasts by light microscopy (fibroblasts [2]; after 16 day period, 60× magnification (FIG. 7C-D)): appeared to be healthy
Substance: 2-hydroxypropyl-β-cyclodextrin [HPβCD]
cell survival after MSDH ([1]; NC w/CD (healthy cells), untreated NC killed): able to survive
cell death after MSDH ([1]; NC w/CD (healthy cells), untreated NC complete death): moderate death
cell survival after MSDH ([1]; PC w/CD (lipofuscin loaded cells)): able to survive
cell death after MSDH ([1]; PC w/CD (lipofuscin loaded cells), untreated PC moderate death): no death
native lipofuscin autofluorescence versus untreated cells (fibroblasts [2]): visibly decreased
native lipofuscin autofluorescence versus untreated cells (fibroblasts [2]; listed as cyclodextrin): significantly reduced
lipopigment accumulation (fluorescence) versus untreated fibroblasts (fibroblasts [3]): lower lipopigment accumulation
lysosomal destabilization/permeability caused by 7-ketocholesterol (7KC-LDL) (THP-1 cells; LDL treatments over 7 days, HβCD added on day 6 (FIG. 3A)): attenuated
633 nm/520 nm ratio of acridine orange signal (THP-1 cells; nLDL, oxLDL and 7KC-LDL (FIG. 3B)): improved
cholesterol content of cells by filipin stain [4]: increased
cholesterol content of cells by filipin stain ([4]; listed as cyclodextrin): reduction of the cholesterol content
overall cellular levels of cholesterol by filipin stain ([4]; long term treatment, after 9 days of maintenance, 200× (FIG. 12A-D)): increase the overall cellular levels of cholesterol
total cholesterol by filipin stain ([4]; treated for 3.5 hours before staining (FIG. 10D vs 10B)): reduction in total cholesterol
cell viability, colorimetric change in CCK-8 assay (human skin fibroblasts): no visible colorimetric difference
total non-bisretinoid lipofuscin content, Average [5, 7]: 6131 fluorescent units per cell
total non-bisretinoid lipofuscin content, individual samples 1-4 [5, 7]: 6278 fluorescent units per cell and 6453 fluorescent units per cell and 5982 fluorescent units per cell and 5809 fluorescent units per cell
total non-bisretinoid lipofuscin content, Average [5, 8]: 2600 fluorescent units per cell
total non-bisretinoid lipofuscin content, individual samples 1-4 [5, 8]: 2552 fluorescent units per cell and 2564 fluorescent units per cell and 2638 fluorescent units per cell and 2647 fluorescent units per cell
lipofuscin levels by flow cytometry fluorescence (in words) ([5]; aged human skin cells, 5-day treatment (FIG. 4)): decreased
reduction of non-bisretinoid lipofuscin ([5]; aged human skin cells, 5-day treatment, p<0.00001): 31.4%
regulation of TFEB (TFEB): no upregulation
regulation of ULK1 (ULK1): no upregulation
decrease in autofluorescence from day 10 to day 12 [6]: 23%

Substance: methyl-β-cyclodextrin [MβCD]
efficiency of cholesterol removal compared with β-cyclodextrin (cultured cells): more efficient

Source: patent publication US20180085392A1, “CYCLODEXTRIN COMPOUNDS FOR THE PREVENTION AND TREATMENT OF AGING” (SENS RESEARCH FOUNDATION, INC., priority 2015, published 2018)
